The values below come from US20240390338A1, “METHODS FOR TREATING NEUROGENERATIVE DISEASES” (PTC THERAPEUTICS, INC., priority 2021, published 2024).

The experiment concerns MAPT 3R mRNA. Kind of experiment: RT-qPCR Assay to Quantify MAPT 3R mRNA in Cells. It counts as cell-based. Also noted: key to EC2X: An EC2X value ≥3000 nM is indicated by “inactive.”; An EC2X value between >1500 nM and ≤3000 nM is indicated by one star (*); An EC2X value between >1000 nM and ≤1500 nM is indicated by two stars (**); An EC2X value between >500 nM and ≤1000 nM is indicated by three stars (***); An EC2X value between >50 nM and ≤500 nM is indicated by four stars (****); An EC2X value ≤50 nM is indicated by five stars (*****). To be noted: cells incubated with compound 24 h; 7-point concentration curve; MAPT minigene 3R RT-qPCR with GAPDH assay; EC2X interpolated from dose response curve. Here is the method:
RT-qPCR Assay to Quantify MAPT 3R mRNA in Cells
Test compounds were serially diluted 3.16-fold in 100% DMSO to generate a 7-point concentration curve. Aliquots of 0.5 μL of diluted compounds were transferred to a 96-well flat bottom plate by a liquid handler. An aliquot of 0.5 μL DMSO was also transferred to separate wells and used as controls. Duplicate samples were set up for each compound concentration and for the DMSO control.
Cells were thawed and incubated in cell culture media (DMEM, 10% FBS, and 1% antibiotic cocktail) for 72 h. Cells were trypsinized, counted, and re-suspended to a concentration of 200,000 cells/mL in cell culture media. A 100 μL aliquot of the cell suspensions were plated at 20,000 cells per well in the compound containing 96 well microtiter plate and incubated for in a cell culture incubator (37° C., 5% CO2, 100% relative humidity).
After 24 h, media was aspirated from the cells and 20 μL of the RCL2 lysis buffer (10 mM Tris-HCL pH 7.4, 150 mM NaCl, 0.33% IGEPAL® CA-630) was added to each well and incubated at RT for 1 min. Chilled nuclease free water (140 μL per well) was added and the plates were immediately transferred on ice. After 1 min on ice, plates were frozen at −80° C. overnight.
Preparation of RT-qPCR Reaction Mixture:
An aliquot of 4 μL/well of the cell lysates was transferred using the liquid handler to the Armadillo 384-Well PCR plate containing 6 μL/well of the RT-qPCR reaction mixture that was prepared as detailed above. The plates were then sealed with MicroAmp™ Optical Adhesive Film followed by spinning down for 1 min and placed in the CFX384 thermocycler (BioRad).
The RT-qPCR was carried out at the following temperatures for the indicated time: • Step 1: 48° C. (30 min) • Step 2: 95° C. (10 min) • Step 3: 95° C. (15 sec) • Step 4: 60° C. (1 min); then, repeated Steps 3 and 4 for a total of 40 cycles.
The percent exon 4 skipping was calculated for each dose of compound treatment using Equations 1 and 2.
Data were fit to a dose response curve and the EC2X was interpolated using XLfit® statistical and curve fitting package.
An EC2X value between >1000 nM and ≤1500 nM is indicated by two stars (**). An EC2X value between >500 nM and ≤1000 nM is indicated by three stars (***). An EC2X value between >50 nM and ≤500 nM is indicated by four stars (****). An EC2X value ≤50 nM is indicated by five stars (*****).
Background: Real-time PCR tracks product formation cycle by cycle.
Regarding `Cc1c([C@@H](C)[C@H](C)N)sc2c(NCc3ccco3)cc(Cl)nc12` [Cpd 151, 2-[(2S,3S)-3-aminobutan-2-yl]-5-chloro-N-[(furan-2-yl)methyl]-3-methylthieno[3,2-b]pyridin-7-amine], the EC2X entry was “inactive”.
Regarding `N[C@@H](CO)Cc1sc2c(NCc3ccco3)cc(Cl)nc2c1Br` [Cpd 41, (2R)-2-amino-3-(3-bromo-5-chloro-7-{[(furan-2-yl)methyl]amino}thieno[3,2-b]pyridin-2-yl)propan-1-ol], the EC (2-fold increase) was in the range of 0.5 to 1 µM.
Turning to `C#C[C@H](N)Cc1sc2c(NCc3ccco3)cc(Cl)nc2c1Cl` [Cpd 166, 2-[(2R)-2-aminobut-3-yn-1-yl]-3,5-dichloro-N-[(furan-2-yl)methyl]thieno[3,2-b]pyridin-7-amine], the EC (2-fold increase) lay within 0.05 to 0.5 µM.
In the case of `C[C@H](N)C(F)(F)c1sc2c(NCc3cccs3)cc(Cl)nc2c1Cl` [Cpd 132, 2-[(2S)-2-amino-1,1-difluoropropyl]-3,5-dichloro-N-[(thiophen-2-yl)methyl]thieno[3,2-b]pyridin-7-amine], the EC (2-fold increase) lay within 0.05 to 0.5 µM.
Same read-out and setting: next, `C[C@H](N)Cc1sc2c(NCc3ccco3)cc(Cl)nc2c1Cl` [Cpd 36, 2-[(2S)-2-aminopropyl]-3,5-dichloro-N-[(furan-2-yl)methyl]thieno[3,2-b]pyridin-7-amine]: no more than 0.05 µM; `Cc1c(C[C@@H](N)CCF)sc2c(NCc3ccco3)cc(Cl)nc12` [Cpd 95, 2-[(2S)-2-amino-4-fluorobutyl]-5-chloro-N-[(furan-2-yl)methyl]-3-methylthieno[3,2-b]pyridin-7-amine]: no more than 0.05 µM; `C[C@@H](O)[C@H](N)Cc1sc2c(NCc3ccco3)cc(Cl)nc2c1Br` [Cpd 165, (2R,3R)-3-amino-4-(3-bromo-5-chloro-7-{[(furan-2-yl)methyl]amino}thieno[3,2-b]pyridin-2-yl)butan-2-ol]: no more than 0.05 µM.
Still for that read-out and setting: next, `C#C[C@H](N)Cc1sc2c(NCc3ccco3)cc(Cl)nc2c1C` [Cpd 123, 2-[(2R)-2-aminobut-3-yn-1-yl]-3-methyl-5-chloro-N-[(furan-2-yl)methyl]thieno[3,2-b]pyridin-7-amine]: no more than 0.05 µM; `N[C@@H](CCF)Cc1sc2c(NCc3ccco3)cc(Cl)nc2c1Br` [Cpd 97, 2-[(2S)-2-amino-4-fluorobutyl]-3-bromo-5-chloro-N-[(furan-2-yl)methyl]thieno[3,2-b]pyridin-7-amine]: no more than 0.05 µM; `CN[C@@H](C)Cc1sc2c(NCc3ccco3)cc(Cl)nc2c1C` [Cpd 42, 5-chloro-N-[(furan-2-yl)methyl]-3-methyl-2-[(2S)-2-(methylamino)propyl]thieno[3,2-b]pyridin-7-amine]: 0.5 to 1 µM.
The same measure, in the same setting: with `Cc1c(C[C@H](C)N)sc2c(NCc3ccco3)ccnc12` [Cpd 34, 2-[(2S)-2-aminopropyl]-N-[(furan-2-yl)methyl]-3-methylthieno[3,2-b]pyridin-7-amine] the figure was 0.05 to 0.5 µM; with `C[C@H](N)C(F)c1sc2c(NCc3cccs3)cc(Cl)nc2c1Br` (stereo partly drawn) [Cpd 158, 2-[(2S)-2-amino-1-fluoropropyl]-3-bromo-5-chloro-N-[(thiophen-2-yl)methyl]thieno[3,2-b]pyridin-7-amine], no more than 0.05 µM.
As to `Cc1c(C[C@@H](N)CC#N)sc2c(NCc3cccs3)cc(Cl)nc12` [Cpd 105, (3S)-3-amino-4-(5-chloro-3-methyl-7-{[(thiophen-2-yl)methyl]amino}thieno[3,2-b]pyridin-2-yl)butanenitrile], the EC (2-fold increase) was 0.05 to 0.5 µM.
On the same count and under the same terms, next, `Cc1c(C[C@@H](N)C(=O)Nc2ccncc2)sc2c(NCc3ccco3)cc(Cl)nc12` [Cpd 140, 3-(5-chloro-7-{[(furan-2-yl)methyl]amino}-3-methylthieno[3,2-b]pyridin-2-yl)-N-pyridin-4-yl-D-alaninamide]: 0.05 to 0.5 µM.
